According to ChEMBL document CHEMBL1201862, “PubChem BioAssay data set” (2004):
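Exposure lasted 48 hours, with cells grown in 96-well plates and compounds tested at five concentrations. At the GI50, growth is halved.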 The source made the active and inactive calls. Cut-off read from the data, not from the text of the source: active = GI50 up to about 1.1 µM and inactive = higher.

Tests used:
Assay in all cases: inhibition of tumour cell growth, NCI panel, 48 h
[1] = test system: HT-29
[2] = test system: HCT-116
[3] = test system: SK-MEL-2
[4] = test system: HL-60
[5] = test system: MCF7
[6] = test system: UO-31
[7] = test system: HCT-15
[8] = test system: NCI-H460
[9] = test system: NCI-H226
[10] = test system: MDA-MB-231
[11] = test system: RPMI-8226
[12] = test system: UACC-62
[13] = test system: KM12
[14] = test system: CCRF-CEM
[15] = test system: SN12C
[16] = test system: SF-295
[17] = test system: EKVX
[18] = test system: T47D
[19] = test system: UACC-257
[20] = test system: IGROV-1
[21] = test system: A549
[22] = test system: SNB-19
[23] = test system: ACHN
[24] = test system: SNB-75
[25] = test system: CAKI-1
[26] = test system: SK-OV-3
[27] = test system: COLO 205
[28] = test system: NCI/ADR-RES
[29] = test system: HOP-62
[30] = test system: OVCAR-8
[31] = test system: DU-145
[32] = test system: SK-MEL-5
[33] = test system: TK-10
[34] = test system: M14
[35] = test system: NCI-H522
[36] = test system: MOLT-4
[37] = test system: U-251
[38] = test system: RXF 393
[39] = test system: HOP-92
[40] = test system: HCC 2998
[41] = test system: SW-620
[42] = test system: A498
[43] = test system: LOX IMVI
[44] = test system: MDA-MB-435
[45] = test system: SF-539
[46] = test system: K562
[47] = test system: Hs-578T
[48] = test system: NCI-H23
[49] = test system: 786-0
[50] = test system: MDA-N
[51] = test system: OVCAR-4
[52] = test system: BT-549
[53] = test system: SF-268
[54] = test system: PC-3
[55] = test system: OVCAR-5

`COc1cc(/C=C2\NC(=O)N(/C=C3\C(=O)Oc4ccccc4C3=O)C2=O)ccc1O` was tested, and the GI50 [1] was 54.5 µM (inactive), the GI50 [2] was > 100 µM (inactive) and the GI50 [3] was > 100 µM (inactive). The GI50 [4] was 20.7 µM (inactive), the GI50 [5] was > 100 µM (inactive) and the GI50 [6] was 44.4 µM (inactive). The GI50 [7] was 39.3 µM, the GI50 [8] was > 100 µM (inactive) and the GI50 [9] was > 100 µM (inactive). For the same molecule, the GI50 [10] was 35.2 µM (inactive), the GI50 [11] was > 100 µM (inactive) and the GI50 [12] was 49 µM (inactive). The GI50 [13] was 54.1 µM (inactive), the GI50 [14] was 32.7 µM (inactive) and the GI50 [15] was 54.3 µM (inactive). The GI50 [16] was > 100 µM (inactive), the GI50 [17] was > 100 µM (inactive) and the GI50 [18] was > 100 µM (inactive). The GI50 [19] was > 100 µM (inactive), the GI50 [20] was 62.7 µM (inactive) and the GI50 [21] was > 100 µM (inactive). For the same molecule, the GI50 [22] was 37.5 µM (inactive), the GI50 [23] was > 100 µM (inactive) and the GI50 [24] was 13.8 µM (inactive). For the same molecule, the GI50 [25] was 59.8 µM (inactive), the GI50 [26] was 51.1 µM (inactive) and the GI50 [27] was 78.2 µM (inactive). The GI50 [28] was > 100 µM (inactive), the GI50 [29] was 61.2 µM (inactive) and the GI50 [30] was 56 µM (inactive). The GI50 [31] was 87.1 µM (inactive), the GI50 [32] was 41 µM (inactive) and the GI50 [33] was > 100 µM (inactive). The GI50 [34] was 99.3 µM (inactive), the GI50 [35] was 29.2 µM (inactive) and the GI50 [36] was 36.2 µM (inactive). The GI50 [37] was 76.6 µM (inactive), the GI50 [38] was 25.1 µM (inactive) and the GI50 [39] was > 100 µM (inactive). The GI50 [40] was 41.2 µM (inactive), the GI50 [41] was > 100 µM (inactive) and the GI50 [42] was 42.1 µM (inactive). The GI50 [43] was 49.5 µM (inactive), the GI50 [44] was > 100 µM (inactive) and the GI50 [45] was 63.1 µM (inactive). For the same molecule, the GI50 [46] was > 100 µM (inactive), the GI50 [47] was 33.6 µM (inactive) and the GI50 [48] was 80.2 µM (inactive). For the same molecule, the GI50 [49] was 88.7 µM (inactive), the GI50 [50] was > 100 µM (inactive) and the GI50 [51] was 91.8 µM (inactive). For the same molecule, the GI50 [52] was 43 µM (inactive), the GI50 [53] was 57.1 µM (inactive) and the GI50 [54] was 64 µM (inactive). The GI50 [55] was > 100 µM (inactive).
